pIC50: −log10 of the molar value. Entries after “also recorded” stand apart in the source; their conditions may differ.
How the values were obtained:
[1] = biological target: T1, MRP2 (Homo sapiens, UniProt Q92887); assay: RSV uptake into MRP2-expressing membrane vesicles; type: biochemical; conditions: ATP vs AMP; data not shown
T1 construct: purchased GenoMembrane Co., Ltd. (Yokohama, Japan) GM0001
Procedure: The vesicular transport activity was determined by the 96-well rapid filtration method in BCRP- and MRP2-expressing membrane vesicles. […] Meanwhile, 5 μL RSV (final concentration, 1 μM) and 20 μL reagent C2 were pre-incubated at 37°C for 5 min. Then, the transport was initiated by mixing them in a 50 μL reaction system and incubated for the designated time at 37°C. The transport was terminated by adding 200 μL of cold buffer B2 at 4°C. Then, the mixture was filtered using a 96-well filter plate. After washing the vesicles five times with 200 μL of cold buffer B2 at 4°C, the vesicles were lysed with 50 μL of 80% […] twice and then centrifuged at 2000 rpm/min for 2 min. Lysates were collected and then centrifuged at 12,000 rpm/min for 5 min. The supernatants were injected onto the LC-MS/MS. The same procedures were applied to AMP-containing samples except that reagent D2 was used instead of reagent C2. All experiments were performed in quadruplicate.

[2] = system: OATP1B1; set-up: method as in Elsby et al., 2016; conditions: ref Elsby et al., 2016; cited from earlier work
[3] = system: BCRP; conditions: read-out: IC50 BCRP; BCRP-mediated RSV transport, membrane vesicles; ref Varma et al. (2019); cited from earlier work
[4] = biological target: T2, OATP1B3 (Homo sapiens, UniProt Q9NPD5); assay: cell-based
T2 sequence (Q9NPD5 1-702): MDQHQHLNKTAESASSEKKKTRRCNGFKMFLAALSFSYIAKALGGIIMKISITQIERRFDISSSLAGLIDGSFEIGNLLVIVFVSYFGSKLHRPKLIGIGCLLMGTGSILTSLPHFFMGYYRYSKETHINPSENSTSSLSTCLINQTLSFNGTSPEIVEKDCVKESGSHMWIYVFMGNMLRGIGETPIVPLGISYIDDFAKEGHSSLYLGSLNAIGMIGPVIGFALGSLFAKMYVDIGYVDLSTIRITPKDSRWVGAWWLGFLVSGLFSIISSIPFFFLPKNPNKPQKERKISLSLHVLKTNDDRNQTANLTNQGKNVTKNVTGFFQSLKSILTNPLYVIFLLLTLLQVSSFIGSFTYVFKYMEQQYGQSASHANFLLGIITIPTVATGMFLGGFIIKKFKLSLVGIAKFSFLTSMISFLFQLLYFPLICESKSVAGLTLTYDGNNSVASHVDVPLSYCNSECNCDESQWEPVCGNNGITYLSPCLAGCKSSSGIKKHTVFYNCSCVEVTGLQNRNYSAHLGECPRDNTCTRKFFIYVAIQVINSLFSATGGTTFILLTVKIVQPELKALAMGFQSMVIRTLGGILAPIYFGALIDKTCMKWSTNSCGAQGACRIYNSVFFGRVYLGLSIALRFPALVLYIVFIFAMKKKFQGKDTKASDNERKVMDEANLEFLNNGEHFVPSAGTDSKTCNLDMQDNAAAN
Procedure: The OATP1B1, OATP1B3, and mock cells were cultured in the DMEM medium containing 10% fetal bovine serum, penicillin–streptomycin solution (100 U/mL and 0.1 mg/ml), and 0.5 mg/ml geneticin at 37°C in the presence of 5% CO2. The cells were seeded in a 24-well plate at a density of 4×10^5 cells/well and grown for 80–90% confluence. […] After washing the cells three times with transporter buffer at 4°C, the cells were lysed with liquid nitrogen. The lysates were precipitated with methanol and centrifuged at 12,000 rpm at 4°C for 5 min. The supernatant was analyzed by LC-MS/MS. Protein concentration was determined using the Pierce® BCA Protein Assay Kit. All experiments were performed in triplicate.
Phoenix WinNonlin® 7.1 (Pharsight Corporation, Mountain View, CA, United States) was used to calculate the pharmacokinetic parameters by the noncompartmental method. IC50 values were obtained by a computer-generated nonlinear least squares fit using GraphPad Prism 8.1 (GraphPad Software, San Diego, CA, United States). Statistical analysis was performed using SPSS ver. 22.0 (IBM, Chicago, IL, United States). The results are presented as mean ± S.D., unless otherwise stated. After testing for the homogeneity of variance, statistical analysis was performed with a one-way ANOVA followed by the LSD post hoc test or unpaired Student’s t-test. A probability (p) of less than 0.05, 0.01, and 0.001 was considered to be statistically significant, highly significant, and extremely significant, respectively.

T1 sequence (Q92887 whole entry): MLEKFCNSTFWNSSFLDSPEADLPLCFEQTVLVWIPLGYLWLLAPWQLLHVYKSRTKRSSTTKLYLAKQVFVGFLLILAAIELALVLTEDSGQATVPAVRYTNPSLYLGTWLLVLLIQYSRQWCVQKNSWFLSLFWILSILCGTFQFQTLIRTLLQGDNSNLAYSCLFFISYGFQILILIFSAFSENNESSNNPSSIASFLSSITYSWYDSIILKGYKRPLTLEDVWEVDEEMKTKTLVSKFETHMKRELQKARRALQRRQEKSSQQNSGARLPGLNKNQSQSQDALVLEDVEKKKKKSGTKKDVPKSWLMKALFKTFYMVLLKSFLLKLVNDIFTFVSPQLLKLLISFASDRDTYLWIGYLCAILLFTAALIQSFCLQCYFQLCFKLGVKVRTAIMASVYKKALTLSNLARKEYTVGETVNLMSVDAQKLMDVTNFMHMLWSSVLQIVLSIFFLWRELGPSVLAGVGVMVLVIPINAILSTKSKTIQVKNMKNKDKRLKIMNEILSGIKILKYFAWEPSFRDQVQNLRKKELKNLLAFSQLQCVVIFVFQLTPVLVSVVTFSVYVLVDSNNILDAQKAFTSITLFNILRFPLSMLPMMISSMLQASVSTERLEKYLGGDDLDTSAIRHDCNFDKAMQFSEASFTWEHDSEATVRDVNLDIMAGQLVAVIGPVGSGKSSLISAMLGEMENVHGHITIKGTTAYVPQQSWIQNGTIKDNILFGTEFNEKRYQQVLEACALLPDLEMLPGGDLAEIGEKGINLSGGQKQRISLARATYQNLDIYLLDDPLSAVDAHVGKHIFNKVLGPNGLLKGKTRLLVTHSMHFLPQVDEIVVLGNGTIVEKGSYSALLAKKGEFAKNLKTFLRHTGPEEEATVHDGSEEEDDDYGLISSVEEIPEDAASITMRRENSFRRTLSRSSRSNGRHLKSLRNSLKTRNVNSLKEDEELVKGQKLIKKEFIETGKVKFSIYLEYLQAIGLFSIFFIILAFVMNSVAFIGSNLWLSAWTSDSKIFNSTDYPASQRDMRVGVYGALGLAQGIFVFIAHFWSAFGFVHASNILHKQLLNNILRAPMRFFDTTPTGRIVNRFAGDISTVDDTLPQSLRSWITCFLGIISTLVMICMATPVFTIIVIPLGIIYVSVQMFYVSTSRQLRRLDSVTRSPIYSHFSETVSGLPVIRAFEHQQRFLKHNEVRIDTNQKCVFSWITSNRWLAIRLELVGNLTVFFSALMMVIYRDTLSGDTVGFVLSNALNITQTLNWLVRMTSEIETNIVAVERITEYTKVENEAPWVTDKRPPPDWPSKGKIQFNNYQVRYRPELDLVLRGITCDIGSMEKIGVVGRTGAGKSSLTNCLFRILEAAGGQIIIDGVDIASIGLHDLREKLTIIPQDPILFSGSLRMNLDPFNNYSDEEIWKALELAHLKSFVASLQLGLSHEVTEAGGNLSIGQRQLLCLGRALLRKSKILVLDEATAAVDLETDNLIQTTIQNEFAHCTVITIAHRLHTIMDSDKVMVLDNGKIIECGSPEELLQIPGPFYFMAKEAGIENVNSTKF

pIC50 [4]	Structure (SMILES)	Uptake ratio into MRP2-expressing membrane vesicles [1]	Individual contribution of OATP1B1 to hepatic uptake [2]	pIC50 [3]	Inhibition of OATP1B3-mediated RSV transport ([4]; 1 μM RSV, CPC 0.05–50 μM)
–	CC(C)c1nc(N(C)S(C)(=O)=O)nc(-c2ccc(F)cc2)c1/C=C/[C@@H](O)C[C@@H](O)CC(=O)O [RSV, rosuvastatin]	less than 2	0.38	–	–
< 4.30	COC(=O)[C@H](c1ccccc1Cl)N1CCc2sccc2C1 [CP, clopidogrel]	–	–	3.98	did not inhibit; also recorded: did not affect

From article PMC8504577, “Evaluation of a Clinically Relevant Drug–Drug Interaction Between Rosuvastatin and Clopidogrel and the Risk of Hepatotoxicity” (Frontiers in Pharmacology, 2021)
